In ChEMBL document CHEMBL1909046, “DrugMatrix in vitro pharmacology data”:

How the values were obtained:
[1] = target: T1, Alpha-2C adrenergic receptor (Homo sapiens, UniProt P18825); test: DRUGMATRIX: Adrenergic Alpha-2C radioligand binding (ligand: [3H] MK-912); assay type: cell membranes, Sf9, Membrane; settings: sf9
T1 sequence (P18825 whole entry): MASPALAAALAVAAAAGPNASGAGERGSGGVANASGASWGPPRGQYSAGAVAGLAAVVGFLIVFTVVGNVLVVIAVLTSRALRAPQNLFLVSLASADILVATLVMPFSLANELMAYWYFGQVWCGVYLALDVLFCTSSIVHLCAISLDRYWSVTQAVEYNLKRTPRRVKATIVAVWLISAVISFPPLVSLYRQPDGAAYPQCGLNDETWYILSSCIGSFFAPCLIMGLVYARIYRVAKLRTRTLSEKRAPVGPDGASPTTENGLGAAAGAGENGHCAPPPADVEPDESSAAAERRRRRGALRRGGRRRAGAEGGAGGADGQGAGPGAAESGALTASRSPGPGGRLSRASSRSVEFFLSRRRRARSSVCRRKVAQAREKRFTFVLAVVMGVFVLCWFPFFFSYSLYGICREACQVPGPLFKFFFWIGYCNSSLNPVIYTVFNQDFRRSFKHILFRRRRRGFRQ

[2] = DRUGMATRIX: ATPase, Na+/K+ enzyme inhibition (substrate: ATP); assay type: tissue-based, Sus scrofa, Heart; settings: Not Active = under 50% inhibition at 10 µM
[3] = DRUGMATRIX: Glutamate, NMDA, Phencyclidine radioligand binding (ligand: [3H] TCP); assay type: cell membranes, Rattus norvegicus, Wistar, Cerebral cortex, Membrane; settings: Not Active = under 50% inhibition at 10 µM
[4] = DRUGMATRIX: Phosphodiesterase PDE3 enzyme inhibition (substrate: [3H]cAMP + cAMP); assay type: tissue-based, Homo sapiens; settings: platelet, Not Active = under 50% inhibition at 10 µM
[5] = target: T2, Angiotensin-converting enzyme (Oryctolagus cuniculus, UniProt P12822); assay type: tissue-based, Lung;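 also: enzymatic inhibition of angiotensin-converting enzyme measured with FAPGG as the substrate; in other assays of this panel Not Active means under 50% inhibition at 10 µM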
T2 sequence (P12822 whole entry): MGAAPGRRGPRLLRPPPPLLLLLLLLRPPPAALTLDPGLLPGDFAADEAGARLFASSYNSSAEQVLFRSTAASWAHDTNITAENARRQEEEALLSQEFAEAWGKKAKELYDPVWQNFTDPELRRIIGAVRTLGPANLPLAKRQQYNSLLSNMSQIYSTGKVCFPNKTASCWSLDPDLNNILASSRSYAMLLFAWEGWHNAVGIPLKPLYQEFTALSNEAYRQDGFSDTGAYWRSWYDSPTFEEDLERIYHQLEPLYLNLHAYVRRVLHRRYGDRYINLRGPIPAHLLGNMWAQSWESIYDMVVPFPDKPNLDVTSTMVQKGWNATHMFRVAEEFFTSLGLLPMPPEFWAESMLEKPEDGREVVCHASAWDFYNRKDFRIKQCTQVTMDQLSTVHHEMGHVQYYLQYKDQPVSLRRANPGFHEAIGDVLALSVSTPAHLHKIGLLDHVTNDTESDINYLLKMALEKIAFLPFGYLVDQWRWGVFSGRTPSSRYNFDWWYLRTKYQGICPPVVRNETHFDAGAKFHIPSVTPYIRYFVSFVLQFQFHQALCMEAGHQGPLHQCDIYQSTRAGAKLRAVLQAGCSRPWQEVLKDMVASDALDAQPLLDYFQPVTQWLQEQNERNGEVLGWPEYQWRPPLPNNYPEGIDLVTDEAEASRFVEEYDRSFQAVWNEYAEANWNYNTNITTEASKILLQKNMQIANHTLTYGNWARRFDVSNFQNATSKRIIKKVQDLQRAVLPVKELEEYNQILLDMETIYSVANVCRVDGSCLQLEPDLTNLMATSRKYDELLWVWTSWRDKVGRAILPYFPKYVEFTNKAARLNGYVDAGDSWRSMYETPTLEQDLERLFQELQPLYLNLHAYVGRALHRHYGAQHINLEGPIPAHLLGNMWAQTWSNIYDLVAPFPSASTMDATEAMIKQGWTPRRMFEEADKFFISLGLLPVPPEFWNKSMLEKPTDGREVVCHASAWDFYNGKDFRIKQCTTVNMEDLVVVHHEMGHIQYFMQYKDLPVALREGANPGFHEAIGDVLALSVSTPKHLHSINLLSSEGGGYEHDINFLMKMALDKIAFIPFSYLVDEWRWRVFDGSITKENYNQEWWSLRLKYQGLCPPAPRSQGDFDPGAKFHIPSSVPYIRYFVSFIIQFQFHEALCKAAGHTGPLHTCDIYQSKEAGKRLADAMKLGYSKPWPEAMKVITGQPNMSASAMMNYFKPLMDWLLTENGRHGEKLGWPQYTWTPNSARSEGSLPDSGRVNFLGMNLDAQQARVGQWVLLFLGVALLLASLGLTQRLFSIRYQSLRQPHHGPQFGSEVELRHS

[6] = target: Receptor tyrosine-protein kinase erbB-2 (Homo sapiens, UniProt P04626); test: biochemical; assay type: cell-based, Insect cells; settings: insect cells;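 also: inhibition of HER2 kinase enzyme activity, measured with Poly(Glu:Tyr) as the phosphorylation substrate; in other assays of this panel Not Active means under 50% inhibition at 10 µM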
Chain of Receptor tyrosine-protein kinase erbB-2 (P04626 whole entry): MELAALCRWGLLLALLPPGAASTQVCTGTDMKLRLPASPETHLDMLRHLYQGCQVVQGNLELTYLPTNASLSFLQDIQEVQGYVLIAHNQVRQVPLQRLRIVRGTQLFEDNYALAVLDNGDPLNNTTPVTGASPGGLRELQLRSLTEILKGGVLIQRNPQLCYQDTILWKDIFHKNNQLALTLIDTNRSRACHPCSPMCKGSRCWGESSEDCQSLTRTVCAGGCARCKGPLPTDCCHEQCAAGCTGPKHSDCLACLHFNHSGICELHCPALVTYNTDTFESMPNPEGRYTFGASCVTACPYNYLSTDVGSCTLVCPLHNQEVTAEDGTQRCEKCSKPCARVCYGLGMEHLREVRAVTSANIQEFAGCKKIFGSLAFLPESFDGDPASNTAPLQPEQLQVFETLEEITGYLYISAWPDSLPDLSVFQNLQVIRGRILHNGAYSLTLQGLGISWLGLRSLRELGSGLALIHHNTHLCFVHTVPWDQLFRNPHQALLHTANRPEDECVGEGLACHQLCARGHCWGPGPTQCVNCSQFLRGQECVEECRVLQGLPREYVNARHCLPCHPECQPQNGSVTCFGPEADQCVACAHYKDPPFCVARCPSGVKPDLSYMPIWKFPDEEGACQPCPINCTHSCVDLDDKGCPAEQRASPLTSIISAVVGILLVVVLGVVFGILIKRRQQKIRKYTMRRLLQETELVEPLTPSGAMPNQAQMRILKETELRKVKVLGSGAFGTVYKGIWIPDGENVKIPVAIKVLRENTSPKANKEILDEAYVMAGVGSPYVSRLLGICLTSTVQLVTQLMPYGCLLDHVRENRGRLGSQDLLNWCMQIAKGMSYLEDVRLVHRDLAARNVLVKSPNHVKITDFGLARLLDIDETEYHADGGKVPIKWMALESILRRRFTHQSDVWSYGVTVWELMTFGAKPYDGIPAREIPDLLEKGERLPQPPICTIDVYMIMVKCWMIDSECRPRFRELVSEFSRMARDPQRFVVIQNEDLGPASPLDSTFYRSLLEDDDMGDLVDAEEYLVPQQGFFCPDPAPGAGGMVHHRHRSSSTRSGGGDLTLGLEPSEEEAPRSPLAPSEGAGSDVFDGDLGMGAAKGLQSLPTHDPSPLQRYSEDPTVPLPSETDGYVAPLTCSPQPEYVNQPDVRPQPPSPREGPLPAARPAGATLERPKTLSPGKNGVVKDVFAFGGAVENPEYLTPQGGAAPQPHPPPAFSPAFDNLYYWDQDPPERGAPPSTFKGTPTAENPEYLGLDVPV

[7] = target: T3, Cytochrome P450 2A6 (Homo sapiens, UniProt P11509); settings: bti-tn-5b1-4; also: in other assays of this panel Not Active means under 50% inhibition at 10 µM
T3 sequence (P11509 whole entry): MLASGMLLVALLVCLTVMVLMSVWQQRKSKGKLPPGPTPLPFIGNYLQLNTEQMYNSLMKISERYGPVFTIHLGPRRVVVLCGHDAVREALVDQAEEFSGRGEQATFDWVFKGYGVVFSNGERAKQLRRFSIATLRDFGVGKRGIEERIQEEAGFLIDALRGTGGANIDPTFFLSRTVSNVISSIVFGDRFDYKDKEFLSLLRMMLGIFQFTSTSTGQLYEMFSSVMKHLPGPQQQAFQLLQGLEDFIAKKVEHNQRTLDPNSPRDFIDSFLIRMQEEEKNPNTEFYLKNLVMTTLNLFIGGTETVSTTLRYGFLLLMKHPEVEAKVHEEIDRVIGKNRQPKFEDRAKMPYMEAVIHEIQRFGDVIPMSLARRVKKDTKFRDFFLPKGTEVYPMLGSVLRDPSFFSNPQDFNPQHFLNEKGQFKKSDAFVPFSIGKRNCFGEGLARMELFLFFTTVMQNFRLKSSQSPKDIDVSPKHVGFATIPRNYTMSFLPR

SMILES	IC50 [1]	IC50 [2]	Ki [2]	IC50 [3]	Ki [3]	IC50 [4]	Ki [4]	IC50 [5]	IC50 [6]	IC50 [7]	Ki [7]	IC50 ([4]; read-out: IC50) [µM]
CC(C)(Oc1ccc(C2CC2(Cl)Cl)cc1)C(=O)O (configuration not stated) [CIPROFIBRATE]	Not Active	Not Active	Not Active	Not Active	Not Active	Not Active	Not Active	Not Active	Not Active	Not Active	Not Active	–
CO[C@H]1[C@@H](O)[C@H](N)[C@@H](O[C@H]2O[C@H]([C@H](C)N)CC[C@H]2N)[C@H](O)[C@@H]1N(C)C(=O)CN [ASTROMICIN]	Not Active	Not Active	Not Active	Not Active	Not Active	Not Active	Not Active	Not Active	Not Active	Not Active	Not Active	–
Clc1cc2c(cc1Cl)Oc1cc(Cl)c(Cl)cc1O2 [2,3,7,8-TETRACHLORODIBENZO-P-DIOXIN]	Not Active	Not Active	Not Active	Not Active	Not Active	Not Active	Not Active	Not Active	Not Active	Not Active	Not Active	–
CNC(=C[N+](=O)[O-])NCCSCc1csc(CN(C)C)n1 [NIZATIDINE]	Not Active	Not Active	Not Active	Not Active	Not Active	Not Active	Not Active	Not Active	Not Active	Not Active	Not Active	–
COc1ccc2cc(CCC(C)=O)ccc2c1 [NABUMETONE]	Not Active	Not Active	Not Active	Not Active	Not Active	Not Active	Not Active	Not Active	Not Active	Not Active	Not Active	–
CC(C(=O)O)c1ccc(CC2CCCC2=O)cc1 (configuration not stated) [LOXOPROFEN]	Not Active	Not Active	Not Active	Not Active	Not Active	Not Active	Not Active	Not Active	Not Active	Not Active	Not Active	–
CCCCCC[C@H]1C(=O)O[C@H](C)[C@H](NC(=O)c2cccc(NC=O)c2O)C(=O)O[C@@H](C)[C@@H]1OC(=O)CC(C)C [ANTIMYCIN A]	Not Active	Not Active	Not Active	Not Active	Not Active	Not Active	Not Active	Not Active	Not Active	Not Active	Not Active	–
COc1ccc(Cc2nccc3cc(OC)c(OC)cc23)cc1OC [PAPAVERINE]	Not Active	Not Active	Not Active	Not Active	Not Active	–	–	Not Active	Not Active	Not Active	Not Active	0.665
O=c1cc(-c2ccccc2)oc2ccc3ccccc3c12 [BETA-NAPHTHOFLAVONE]	Not Active	Not Active	Not Active	Not Active	Not Active	Not Active	Not Active	Not Active	Not Active	Not Active	Not Active	–
CC(=O)O[C@]1(C(C)=O)CC[C@H]2[C@@H]3C=C(Cl)C4=CC(=O)[C@@H]5C[C@@H]5[C@]4(C)[C@H]3CC[C@@]21C [CYPROTERONE ACETATE]	Not Active	Not Active	Not Active	Not Active	Not Active	Not Active	Not Active	Not Active	Not Active	Not Active	Not Active	–
CCN[C@@H](C)Cc1cccc(C(F)(F)F)c1 [DEXFENFLURAMINE]	Not Active	Not Active	Not Active	Not Active	Not Active	Not Active	Not Active	Not Active	Not Active	Not Active	Not Active	–
Nn1nnc2ccccc21	Not Active	Not Active	Not Active	Not Active	Not Active	Not Active	Not Active	Not Active	Not Active	Not Active	Not Active	–
O=C(O)Cc1ccc(-c2ccccc2)cc1 [FELBINAC]	Not Active	Not Active	Not Active	Not Active	Not Active	Not Active	Not Active	Not Active	Not Active	Not Active	Not Active	–
